The text below walks through data of ChEMBL document CHEMBL2034816, “Synthesis and molecular modelling studies of novel carbapeptide analogs for inhibition of HIV-1 protease” (Eur J Med Chem, 2012).

As a reminder, the IC50 is the concentration at which inhibition is half-maximal. A higher IC50 goes with weaker potency in that assay. Usually Ki stands for the dissociation constant of the complex between target and ligand, obtained from inhibition or displacement. A higher Ki goes with lower affinity.

SMILES strings stand for the structures. A value given as a limit tells only on which side of the number the result lay.

Series [1] concerns the target T1, Protease (Human immunodeficiency virus 1, UniProt Q9YQ12). The experiment in a line: Inhibition of South African HIV1 subtype C protease expressed in Escherichia coli BL21S4 (DE3)pLysS cells using Lys-Ala-Arg-Val-Nle-p-nitro-Phe-Glu-Ala-Nle-NH2 as substrate by spectrophotometry.
The nature of series [2]: Ratio of compound IC50 to lopinavir IC50 for human MT4 cells after 5 days by XTT assay. The series is classed as ADME, cell-based. As to conditions: read-out: Ratio IC50. Background: Tetrazolium dyes change colour on reduction, which living cells bring about.
The target in series [3] is T1, Protease. Put plainly: Inhibition of HIV1 protease.

T1 sequence (Q9YQ12 whole entry): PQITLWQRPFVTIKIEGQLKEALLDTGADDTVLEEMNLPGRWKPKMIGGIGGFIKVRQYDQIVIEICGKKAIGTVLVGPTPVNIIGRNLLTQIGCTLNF

For the molecule `CC(C)[C@H](NC(=O)C[C@H](N)C1O[C@@H]2OC(C)(C)O[C@@H]2[C@H]1O)C(=O)N[C@@H](C)C(=O)O` (stereo partly specified), the IC50 against Protease [1] stood at 1.01 µM. In series [2], the selectivity ratio at 120 h was over 5000. In the same order, the values of `CC(C)[C@H](NC(=O)[C@H](C)NC(=O)C[C@@H](N)C1O[C@@H]2OC(C)(C)O[C@@H]2[C@H]1O)C(=O)O` (stereo partly specified) are over 10 µM and over 5000.

With `CC(C)(C)OC(=O)N[C@@H](Cc1ccccc1)[C@@H](O)CC(C/C=C/c1ccccc1)C(=O)N[C@H](C(=O)NC[C@H]1OC(O)[C@H](O)[C@H]1O)C1CCCCC1` (stereo partly specified), the IC50 against Protease [3] was 0.00017 µM. As for `O=C(N[C@@H]1Cc2ccccc2[C@@H]1O)C(OCc1ccccc1)[C@H](O)[C@@H](O)C(OCc1ccccc1)C(=O)N[C@@H]1Cc2ccccc2[C@@H]1O` (stereo partly specified), on Protease [3], the affinity corresponds to a Ki of 0.00122 µM. As to `CC(C)[C@H](NC(=O)[C@H](C)NC(=O)C[C@H](N)C1O[C@@H]2OC(C)(C)O[C@@H]2[C@H]1O)C(=O)O` (stereo partly specified), the IC50 at Protease [1] was over 10 µM. Further, the selectivity ratio at 120 h in series [2] is over 5000. The molecule `CC(C)[C@H](NC(=O)[C@H](C)NC(=O)C[C@@H](NCc1ccccc1)C1O[C@@H]2OC(C)(C)O[C@@H]2[C@H]1OCc1ccccc1)C(=O)O` (stereo partly specified) gave an IC50 on Protease [1] of 1.02 µM. Besides, the selectivity ratio at 120 h in series [2] is over 5000. In the same order, the values of `CC(C)[C@H](NC(=O)[C@H](C)NC(=O)C[C@H](NCc1ccccc1)C1O[C@@H]2OC(C)(C)O[C@@H]2[C@H]1O)C(=O)O` (stereo partly specified) are 0.71 µM and over 5000. In the case of `COC(=O)[C@H](CC(C)C)NC(=O)[C@H](Cc1ccccc1)NC(=O)[C@@H]1O[C@@H](C(=O)N[C@@H](Cc2ccccc2)C(C)N[C@@H](CC(C)C)C(=O)OC)[C@@H](O)[C@@H]1O` (stereo partly specified), the IC50 on Protease [3] is over 2000 µM. As for `CC(C)[C@H](NC(=O)C[C@@H](N)C1O[C@@H]2OC(C)(C)O[C@@H]2[C@H]1O)C(=O)N[C@@H](C)C(=O)O` (stereo partly specified), inhibition at Protease [1] was half-maximal at 0.95 µM (IC50). For the same molecule, the selectivity ratio at 120 h in series [2] was over 5000. In the same order, the values of `CC(C)[C@H](NC(=O)[C@H](C)NC(=O)C[C@H](NCc1ccccc1)C1O[C@@H]2OC(C)(C)O[C@@H]2[C@H]1OCc1ccccc1)C(=O)O` (stereo partly specified) are 0.76 µM and over 5000. As for `CC(C)[C@H](NC(=O)C[C@@H](NCc1ccccc1)C1O[C@@H]2OC(C)(C)O[C@@H]2[C@H]1OCc1ccccc1)C(=O)N[C@@H](C)C(=O)O` (stereo partly specified), the IC50 against Protease [1] amounted to 1.09 µM. Further, the selectivity ratio at 120 h in series [2] was over 5000. In the same order, the values of `CC(C)[C@H](NC(=O)C[C@H](NCc1ccccc1)C1O[C@@H]2OC(C)(C)O[C@@H]2[C@H]1OCc1ccccc1)C(=O)N[C@@H](C)C(=O)O` (stereo partly specified) are 1.29 µM and over 5000.
